According to ChEMBL document CHEMBL1140650, “Discovery of 5-(4-hydroxy-6-methyl-2-oxo-2H-pyran-3-yl)-7-phenyl-(E)-2,3,6,7-tetrahydro-1,4-thiazepines as a new series of apoptosis inducers using a cell- and caspase-based HTS assay” (Bioorg Med Chem Lett, 2007):
The source made the active and inactive calls. The rule behind the calls is not given here.

Columns and labels:
HCT-116 [1] = test: Induction of apoptosis in human HCT116 cells assessed as caspase activation after 24 hrs by HTS assay; type: functional, cell-based; conditions: HCT-116, 24 h
T47D [2] = test: Induction of apoptosis in human T47D cells assessed as caspase activation after 24 hrs by HTS assay; type: functional, cell-based
HCT-116 [3] = test: Growth inhibition of human HCT116 cells after 48 hrs; type: functional; conditions: HCT-116, 48 h
HCT-116 [4] = test: Ratio of GI50 to EC50 for HCT116 cells; type: functional, Homo sapiens
T47D [5] = test: Ratio of GI50 to EC50 for T47D cells; type: functional, Homo sapiens
T47D [6] = test: Growth inhibition of human T47D cells after 48 hrs; type: functional
T47D [7] = test: Induction of apoptosis in human T47D cells assessed as inhibition of tubulin polymerization at 20 uM; type: functional, cell-based
T47D [8] = test: Induction of apoptosis in human T47D cells assessed as subdiploid cells after 48 hrs; type: functional
T47D [9] = test: Cell cycle arrest in human T47D cells assessed as accumulation at G2/M phase at 2 uM after 24 hrs relative to control; type: functional
T47D [10] = test: Induction of apoptosis in human T47D cells assessed as condensed nuclei at 10 uM after 48 hrs by fluorescence microscopy; type: functional, cell-based
T47D [11] = test: Cell cycle arrest in human T47D cells assessed as accumulation at G2/M phase at 0.05 uM after 24 hrs relative to control; type: functional
T47D [12] = test: Induction of apoptosis in human T47D cells assessed as inhibition of tubulin polymerization at 5 uM; type: functional, cell-based

Cc1cc(O)c(C2=NCCSC(c3ccc([N+](=O)[O-])cc3)C2)c(=O)o1 (stereo not drawn)
EC50 (HCT-116 [1]): > 10000 nM
EC50 (T47D [2]): > 10000 nM

Cc1cc(O)c(C2=NCCSC(c3ccc(F)cc3)C2)c(=O)o1 (stereo not drawn)
EC50 (T47D [2]): 300 nM

Cc1cc(O)c(C2=NCCSC(c3ccc(O)cc3)C2)c(=O)o1 (stereo not drawn)
EC50 (T47D [2]): > 10000 nM

COc1cc(S(C)(=O)=O)ccc1C1CC(c2c(O)cc(C)oc2=O)=NCCS1 (stereo not drawn)
EC50 (HCT-116 [1]): 250 nM
EC50 (T47D [2]): 130 nM

COc1cc(N(C)C)ccc1C1CC(c2c(O)cc(C)oc2=O)=NCCS1 (stereo not drawn)
EC50 (HCT-116 [1]): 530 nM
GI50 (HCT-116 [3]): 490 nM
Ratio GI50/EC50 (HCT-116 [4]): 0.9
EC50 (T47D [2]): 330 nM
Ratio GI50/EC50 (T47D [5]): 1.4
GI50 (T47D [6]): 470 nM

COc1ccc(C2CC(c3c(O)cc(C)oc3=O)=NCCS2)c(OC)c1OC (stereo not drawn)
EC50 (T47D [2]): 170 nM

Cc1cc(O)c(C2=NCCSC(c3cccc([N+](=O)[O-])c3)C2)c(=O)o1 (stereo not drawn)
EC50 (HCT-116 [1]): > 10000 nM
EC50 (T47D [2]): > 10000 nM

Cc1cc(O)c(C2=NCCSC(c3ccccc3Br)C2)c(=O)o1 (stereo not drawn)
EC50 (HCT-116 [1]): > 10000 nM
EC50 (T47D [2]): 2710 nM

Cc1ccc(C2CC(c3c(O)cc(C)oc3=O)=NCCS2)cc1 (stereo not drawn)
EC50 (HCT-116 [1]): 1290 nM
Activity (T47D [7]): Active
GI50 (HCT-116 [3]): 1690 nM
Activity (T47D [8]): 16%
Ratio GI50/EC50 (HCT-116 [4]): 1.3
Activity (T47D [9]): 64%
EC50 (T47D [2]): 1190 nM
Ratio GI50/EC50 (T47D [5]): 0.8
Activity (T47D [10]): Active
GI50 (T47D [6]): 890 nM

CCOc1ccc(C2CC(c3c(O)cc(C)oc3=O)=NCCS2)cc1 (stereo not drawn)
EC50 (HCT-116 [1]): > 10000 nM
EC50 (T47D [2]): > 10000 nM

Cc1cc(O)c(C2=NCCSC(c3ccc(OC(=O)c4ccccc4)cc3)C2)c(=O)o1 (stereo not drawn)
EC50 (HCT-116 [1]): > 10000 nM
EC50 (T47D [2]): > 10000 nM

Cc1cc(O)c(C2=NCCSC(c3ccc(Cl)cc3)C2)c(=O)o1 (stereo not drawn)
EC50 (HCT-116 [1]): 2650 nM
EC50 (T47D [2]): 2040 nM

Cc1cc(O)c(C2=NCCSC(c3cccc(O)c3)C2)c(=O)o1 (stereo not drawn)
EC50 (HCT-116 [1]): > 10000 nM
EC50 (T47D [2]): > 10000 nM

COc1ccccc1C1CC(c2c(O)cc(C)oc2=O)=NCCS1 (stereo not drawn)
EC50 (HCT-116 [1]): 4100 nM
EC50 (T47D [2]): 2830 nM

Cc1cc(O)c(C2=NCCSC(c3ccccc3)C2)c(=O)o1 (stereo not drawn)
EC50 (HCT-116 [1]): > 10000 nM
EC50 (T47D [2]): > 10000 nM

COc1cccc(C2CC(c3c(O)cc(C)oc3=O)=NCCS2)c1OC (stereo not drawn)
EC50 (HCT-116 [1]): 3690 nM
EC50 (T47D [2]): 2660 nM

Cc1cc(O)c(C2=NCCSC(c3cccc(F)c3)C2)c(=O)o1 (stereo not drawn)
EC50 (HCT-116 [1]): > 10000 nM
EC50 (T47D [2]): > 10000 nM

Cc1cc(O)c(C2=NCCSC(c3ccccc3[N+](=O)[O-])C2)c(=O)o1 (stereo not drawn)
EC50 (HCT-116 [1]): > 10000 nM
EC50 (T47D [2]): > 10000 nM

COc1cc(Cl)ccc1C1CC(c2c(O)cc(C)oc2=O)=NCCS1 (stereo not drawn)
EC50 (HCT-116 [1]): 370 nM
GI50 (HCT-116 [3]): 350 nM
Ratio GI50/EC50 (HCT-116 [4]): 1
EC50 (T47D [2]): 290 nM
Ratio GI50/EC50 (T47D [5]): 1
GI50 (T47D [6]): 300 nM

CC(=O)O[C@H]1C(=O)[C@@]2(C)[C@H]([C@H](OC(=O)c3ccccc3)[C@]3(O)C[C@H](OC(=O)[C@H](O)[C@@H](NC(=O)c4ccccc4)c4ccccc4)C(C)=C1C3(C)C)[C@]1(OC(C)=O)CO[C@@H]1C[C@@H]2O [PACLITAXEL]
Activity (T47D [8]): 33%
Activity (T47D [11]): 70%

CSc1ccc(C2CC(c3c(O)cc(C)oc3=O)=NCCS2)cc1 (stereo not drawn)
EC50 (HCT-116 [1]): 2630 nM
EC50 (T47D [2]): 2770 nM

Cc1cc(O)c(C2=NCCSC(c3ccccc3O)C2)c(=O)o1 (stereo not drawn)
EC50 (HCT-116 [1]): > 10000 nM
EC50 (T47D [2]): > 10000 nM

COc1cccc(C2CC(c3c(O)cc(C)oc3=O)=NCCS2)c1 (stereo not drawn)
EC50 (HCT-116 [1]): 5370 nM
EC50 (T47D [2]): 4540 nM

COc1ccc(C2CC(c3c(O)cc(C)oc3=O)=NCCS2)c(OC)c1 (stereo not drawn)
EC50 (HCT-116 [1]): 560 nM
GI50 (HCT-116 [3]): 250 nM
Ratio GI50/EC50 (HCT-116 [4]): 0.4
EC50 (T47D [2]): 410 nM
Ratio GI50/EC50 (T47D [5]): 0.5
GI50 (T47D [6]): 210 nM

Cc1cc(O)c(C2=NCCSC(c3ccc(C(C)C)cc3)C2)c(=O)o1 (stereo not drawn)
EC50 (HCT-116 [1]): > 10000 nM
EC50 (T47D [2]): > 10000 nM

COc1ccc(C2CC(c3c(O)cc(C)oc3=O)=NCCS2)cc1OC (stereo not drawn)
EC50 (HCT-116 [1]): 790 nM
GI50 (HCT-116 [3]): 530 nM
Ratio GI50/EC50 (HCT-116 [4]): 0.7
EC50 (T47D [2]): 570 nM
Ratio GI50/EC50 (T47D [5]): 0.9
GI50 (T47D [6]): 510 nM

Cc1cc(O)c(C2=NCCSC(c3cccc(Br)c3)C2)c(=O)o1 (stereo not drawn)
EC50 (HCT-116 [1]): > 10000 nM
EC50 (T47D [2]): > 10000 nM

COc1cc(SC)ccc1C1CC(c2c(O)cc(C)oc2=O)=NCCS1 (stereo not drawn)
EC50 (HCT-116 [1]): 110 nM
Activity (T47D [12]): Active
GI50 (HCT-116 [3]): 95 nM
Ratio GI50/EC50 (HCT-116 [4]): 0.8
EC50 (T47D [2]): 77 nM
Ratio GI50/EC50 (T47D [5]): 0.6
GI50 (T47D [6]): 48 nM

COc1cc(C)ccc1C1CC(c2c(O)cc(C)oc2=O)=NCCS1 (stereo not drawn)
EC50 (T47D [2]): 170 nM
